From patent US12624034B2, “Non-covalent modifiers of AKT1 and uses thereof” (Terremoto Biosciences, Inc., priority 2023, dated 2026) come the findings set out here.

Test [1] concerns the target T1, AKT2 (Homo sapiens, UniProt P31751).
T1 construct: expressed in transfected cells; host or cells: HEK293
The test is described as follows: Live cell AKT2 target engagement by NanoBRET competitive probe displacement in HEK293 cells. The format is binding. To be noted: 2 h at 37° C., read-out: AKT2 IC50.

In test [2] the target is T2, AKT1 WT (Homo sapiens, UniProt P31749).
T2 construct: expressed in transfected cells; host or cells: HEK293
The experiment in a line: Live cell AKT1 WT target engagement by NanoBRET competitive probe displacement in HEK293 cells. The test is classed as binding. As to conditions: 2 h at 37° C., read-out: AKT1 WT IC50.

The mark [3] stands for this setting: NanoBRET live cell target engagement, HEK293 cells.
The mark [4] stands for this setting: NanoBRET competitive probe displacement, live HEK293 cells.

Read-outs that look alike come from different tables or passages of the source.

T1 sequence (P31751 whole entry): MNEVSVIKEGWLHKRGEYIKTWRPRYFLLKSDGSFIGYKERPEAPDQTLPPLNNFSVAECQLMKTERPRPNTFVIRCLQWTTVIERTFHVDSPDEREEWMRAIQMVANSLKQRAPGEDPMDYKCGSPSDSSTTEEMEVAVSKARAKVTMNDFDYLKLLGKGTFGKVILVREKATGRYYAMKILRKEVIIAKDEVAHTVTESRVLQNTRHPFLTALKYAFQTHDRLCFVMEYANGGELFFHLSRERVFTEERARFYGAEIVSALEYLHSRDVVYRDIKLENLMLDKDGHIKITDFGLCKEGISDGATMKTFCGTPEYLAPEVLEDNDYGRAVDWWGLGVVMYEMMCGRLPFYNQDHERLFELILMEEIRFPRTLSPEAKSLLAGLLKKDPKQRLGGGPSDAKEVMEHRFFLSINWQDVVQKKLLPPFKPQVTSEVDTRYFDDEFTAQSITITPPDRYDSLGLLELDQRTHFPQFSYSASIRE
T2 sequence (P31749 whole entry): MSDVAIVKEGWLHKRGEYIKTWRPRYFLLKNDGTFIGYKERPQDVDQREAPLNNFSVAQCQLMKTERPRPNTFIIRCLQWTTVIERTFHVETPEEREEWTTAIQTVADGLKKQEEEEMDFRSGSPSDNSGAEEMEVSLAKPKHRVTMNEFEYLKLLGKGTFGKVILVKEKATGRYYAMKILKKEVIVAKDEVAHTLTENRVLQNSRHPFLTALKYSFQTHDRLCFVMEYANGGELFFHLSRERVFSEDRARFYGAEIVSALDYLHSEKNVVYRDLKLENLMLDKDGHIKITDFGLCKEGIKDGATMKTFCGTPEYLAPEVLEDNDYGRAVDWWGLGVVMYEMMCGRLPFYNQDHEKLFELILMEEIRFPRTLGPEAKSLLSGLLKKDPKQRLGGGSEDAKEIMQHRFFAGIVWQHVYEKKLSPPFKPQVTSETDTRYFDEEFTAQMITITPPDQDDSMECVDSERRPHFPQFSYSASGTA

Take `Cc1ncc(C(=O)N[C@H]2CCc3cc(-n4c(-c5cccnc5N)nc5ccc(-n6cccn6)nc54)ccc32)c(C(F)F)n1` [Compound 151, (S)—N-(5-(2-(2-aminopyridin-3-yl)-5-(1H-pyrazol-1-yl)-3H-imidazo[4,5-b]pyridin-3-yl)-2,3-dihydro-1H-inden-1-yl)-4-(difluoromethyl)-2-methylpyrimidine-5-carboxamide]: the concentration for half-maximal inhibition (IC50) in test [1] (setting [3]) is 366 nM; in test [2] (setting [3]) it was 22.8 nM.

Turning to `Nc1ncccc1-c1nc2ccc(-n3ccc(OC4CCOCC4)n3)nc2n1-c1ccc2c(c1)CC[C@@H]2NC1CCN(C(=O)C2CC2)CC1` [Compound 517], the IC50 turned out to be 973 nM in test [1] (setting [4]) and 31.6 nM in test [2] (setting [4]).

For the compound `CC(=O)N1CCC(N[C@H]2CCc3cc(-n4c(-c5cccnc5N)nc5ccc(-n6cccn6)nc54)ccc32)CC1` [Compound 109], the IC50 in test [1] (setting [3]) was determined as 5830 nM; in test [2] (setting [3]), 257 nM.

For the compound `Cc1ccc(C(=O)N[C@H]2CCc3cc(-n4c(-c5cccnc5N)nc5ccc(C#Cc6ncco6)nc54)ccc32)cn1` [Compound 341], the IC50 came to 2850 nM in test [1] (setting [3]) and 391 nM in test [2] (setting [3]).

For the compound `Nc1ncccc1-c1nc2ccc(-n3nccn3)nc2n1-c1ccc2c(c1)CC[C@@H]2n1cc(C2CC2)nn1` [Compound 352], the IC50 came to 4290 nM in test [1] (setting [3]) and 141 nM in test [2] (setting [3]).

On to `COc1cncc(-c2ccc3nc(-c4cccnc4N)n(-c4ccc5c(c4)CC[C@@H]5NC4CCN(C(=O)C5CC5)CC4)c3n2)n1` [Compound 577], for which the figures for the IC50 in test [1] (setting [4]) and in test [2] (setting [4]) were 904 nM and 87.9 nM, respectively.

Turning to `Cc1cnsc1C(=O)N[C@H]1CCc2cc(-n3c(-c4cccnc4N)nc4ccc(-n5cccn5)nc43)ccc21` [Compound 451], the IC50 in test [1] (setting [4]) worked out at 198 nM; in test [2] (setting [4]), 8.14 nM.

Turning to `C#Cc1cc(-n2nccn2)nc2c1nc(-c1cccnc1N)n2-c1ccc2c(c1)CC[C@@H]2NC(=O)c1ccc(C)nc1` [Compound 587], the IC50 is 1010 nM in test [1] (setting [4]) and 116 nM in test [2] (setting [4]).

For `Nc1ncccc1-c1nc2ccc(C#CC3CCC3)nc2n1-c1ccc2c(c1)CC[C@@H]2NC(=O)c1ccc(C(F)F)nc1` [Compound 226], the results for the concentration for half-maximal inhibition (IC50) in test [1] (setting [3]) and in test [2] (setting [3]) were 2020 nM and 45.5 nM, respectively.

For the compound `Nc1ncccc1-c1nc2ccc(-n3ccc(OC(F)F)n3)nc2n1-c1ccc2c(c1)CC[C@@H]2NC1[C@@H]2COC[C@H]1CN(C(=O)C1CC1)C2` (stereo partly drawn) [Compound 560], the IC50 in test [1] (setting [4]) was determined as 2520 nM; in test [2] (setting [4]), 249 nM.

As to `Cc1cc(C(=O)N[C@H]2CCc3cc(-n4c(-c5cccnc5N)nc5ccc(-n6cccn6)nc54)ccc32)nn1C` [Compound 126], the concentration for half-maximal inhibition (IC50) is 532 nM in test [1] (setting [3]) and 721 nM in test [2] (setting [3]).

`Cc1ccc(C(C)N[C@H]2CCc3cc(-n4c(-c5cccnc5N)nc5ccc(-n6cccn6)nc54)ccc32)cn1` (stereo partly drawn) [Compound 154]: the values for the IC50 in test [1] (setting [3]) and in test [2] (setting [3]) were 3180 nM and 508 nM, respectively.

`Cc1ncc(F)cc1C(=O)N[C@H]1CCc2cc(-n3c(-c4cccnc4N)nc4ccc(-n5cccn5)nc43)ccc21` [Compound 159]: the figures for the half-inhibitory concentration (IC50) in test [1] (setting [3]) and in test [2] (setting [3]) were 22.1 nM and 4.65 nM, respectively.

Regarding `COc1ccc(C(=O)N[C@H]2CCc3cc(-n4c(-c5cccnc5N)nc5ccc(-n6cccn6)nc54)ccc32)cc1F` [Compound 241], the IC50 in test [1] (setting [3]) was determined as 15.7 nM; in test [2] (setting [3]), 4.06 nM.

`Nc1ncccc1-c1nc2ccc(-n3cccn3)nc2n1-c1ccc2c(c1)CC[C@@H]2n1cc(-c2ccncc2)nn1` [Compound 198]: the results for the IC50 in test [1] (setting [3]) and in test [2] (setting [3]) were 113 nM and 9.5 nM, respectively.

As for `Nc1ncccc1-c1nc2ccc(-n3cccn3)nc2n1-c1ccc2c(c1)CC[C@@H]2NC(=O)c1cnc(C(F)F)s1` [Compound 376], the IC50 in test [1] (setting [3]) worked out at 151 nM; in test [2] (setting [3]) it was 8.07 nM.

`Nc1ncccc1-c1nc2ccc(-n3cccn3)nc2n1-c1ccc2c(c1)CC[C@@H]2NCc1ccccn1` [Compound 131]: the IC50 in test [1] (setting [3]) came to 785 nM; in test [2] (setting [3]), 42.5 nM.

Take `COc1cc2c(cn1)CCC2N[C@H]1CCc2cc(-n3c(-c4cccnc4N)nc4ccc(-n5cccn5)nc43)ccc21` (stereo partly drawn) [Compound 511]: the IC50 turned out to be 196 nM in test [1] (setting [4]) and 10.4 nM in test [2] (setting [4]).
